According to ChEMBL document CHEMBL4480429, “Discovery of (S)-6-methoxy-chroman-3-carboxylic acid (4-pyridin-4-yl-phenyl)-amide as potent and isoform selective ROCK2 inhibitors” (Bioorg Med Chem, 2019):
pIC50: −log10 of the molar value.

Legend:
[1] = target: Rho-associated protein kinase 1 (Homo sapiens, UniProt Q13464); assay: Inhibition of ROCK1 (unknown origin) using STK2 as substrate measured after 4 hrs by HTRF assay
[2] = target: Rho-associated protein kinase 2 (Homo sapiens, UniProt O75116); assay: Inhibition of ROCK2 (unknown origin) using STK2 as substrate measured after 4 hrs by HTRF assay
Chain of Rho-associated protein kinase 2 (O75116 whole entry): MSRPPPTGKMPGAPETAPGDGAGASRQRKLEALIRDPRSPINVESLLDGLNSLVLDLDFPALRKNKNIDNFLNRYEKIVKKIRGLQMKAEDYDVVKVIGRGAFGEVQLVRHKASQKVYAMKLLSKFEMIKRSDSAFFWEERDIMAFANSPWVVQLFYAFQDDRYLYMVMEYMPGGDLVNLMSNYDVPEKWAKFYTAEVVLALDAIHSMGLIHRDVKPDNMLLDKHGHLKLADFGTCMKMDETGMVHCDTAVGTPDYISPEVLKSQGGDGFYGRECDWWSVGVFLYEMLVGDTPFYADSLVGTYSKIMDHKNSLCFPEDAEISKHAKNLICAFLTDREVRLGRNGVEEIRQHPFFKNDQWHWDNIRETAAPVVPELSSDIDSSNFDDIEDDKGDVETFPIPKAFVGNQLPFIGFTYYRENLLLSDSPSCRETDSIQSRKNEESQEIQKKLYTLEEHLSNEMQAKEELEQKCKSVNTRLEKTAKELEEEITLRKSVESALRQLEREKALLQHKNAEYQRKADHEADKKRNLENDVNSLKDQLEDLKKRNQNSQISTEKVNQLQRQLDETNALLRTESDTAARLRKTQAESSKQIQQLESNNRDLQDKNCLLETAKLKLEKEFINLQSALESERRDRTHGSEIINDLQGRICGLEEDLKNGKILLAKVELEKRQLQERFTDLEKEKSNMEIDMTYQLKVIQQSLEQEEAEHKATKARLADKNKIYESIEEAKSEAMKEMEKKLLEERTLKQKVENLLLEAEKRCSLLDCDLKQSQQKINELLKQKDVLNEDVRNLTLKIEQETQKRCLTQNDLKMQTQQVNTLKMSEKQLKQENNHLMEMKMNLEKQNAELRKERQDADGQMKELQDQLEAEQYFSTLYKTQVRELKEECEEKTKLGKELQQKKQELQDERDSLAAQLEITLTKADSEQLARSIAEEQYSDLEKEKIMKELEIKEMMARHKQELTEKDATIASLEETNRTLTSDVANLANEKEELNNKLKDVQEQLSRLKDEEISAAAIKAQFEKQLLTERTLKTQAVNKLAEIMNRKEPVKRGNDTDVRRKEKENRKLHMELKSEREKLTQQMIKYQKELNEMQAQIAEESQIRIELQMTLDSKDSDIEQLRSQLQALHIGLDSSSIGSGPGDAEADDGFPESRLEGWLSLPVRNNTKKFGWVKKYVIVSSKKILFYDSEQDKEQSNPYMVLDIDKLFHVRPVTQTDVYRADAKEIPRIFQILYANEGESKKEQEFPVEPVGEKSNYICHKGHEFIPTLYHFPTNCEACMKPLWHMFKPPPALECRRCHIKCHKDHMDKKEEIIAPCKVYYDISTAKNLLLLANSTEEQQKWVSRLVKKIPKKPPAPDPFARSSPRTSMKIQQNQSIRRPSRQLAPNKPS

[3] = organism: Homo sapiens; assay: Selectivity ratio of IC50 for ROCK1 (unknown origin) to IC50 for ROCK2 (unknown origin)

Chain of Rho-associated protein kinase 1 (Q13464 whole entry): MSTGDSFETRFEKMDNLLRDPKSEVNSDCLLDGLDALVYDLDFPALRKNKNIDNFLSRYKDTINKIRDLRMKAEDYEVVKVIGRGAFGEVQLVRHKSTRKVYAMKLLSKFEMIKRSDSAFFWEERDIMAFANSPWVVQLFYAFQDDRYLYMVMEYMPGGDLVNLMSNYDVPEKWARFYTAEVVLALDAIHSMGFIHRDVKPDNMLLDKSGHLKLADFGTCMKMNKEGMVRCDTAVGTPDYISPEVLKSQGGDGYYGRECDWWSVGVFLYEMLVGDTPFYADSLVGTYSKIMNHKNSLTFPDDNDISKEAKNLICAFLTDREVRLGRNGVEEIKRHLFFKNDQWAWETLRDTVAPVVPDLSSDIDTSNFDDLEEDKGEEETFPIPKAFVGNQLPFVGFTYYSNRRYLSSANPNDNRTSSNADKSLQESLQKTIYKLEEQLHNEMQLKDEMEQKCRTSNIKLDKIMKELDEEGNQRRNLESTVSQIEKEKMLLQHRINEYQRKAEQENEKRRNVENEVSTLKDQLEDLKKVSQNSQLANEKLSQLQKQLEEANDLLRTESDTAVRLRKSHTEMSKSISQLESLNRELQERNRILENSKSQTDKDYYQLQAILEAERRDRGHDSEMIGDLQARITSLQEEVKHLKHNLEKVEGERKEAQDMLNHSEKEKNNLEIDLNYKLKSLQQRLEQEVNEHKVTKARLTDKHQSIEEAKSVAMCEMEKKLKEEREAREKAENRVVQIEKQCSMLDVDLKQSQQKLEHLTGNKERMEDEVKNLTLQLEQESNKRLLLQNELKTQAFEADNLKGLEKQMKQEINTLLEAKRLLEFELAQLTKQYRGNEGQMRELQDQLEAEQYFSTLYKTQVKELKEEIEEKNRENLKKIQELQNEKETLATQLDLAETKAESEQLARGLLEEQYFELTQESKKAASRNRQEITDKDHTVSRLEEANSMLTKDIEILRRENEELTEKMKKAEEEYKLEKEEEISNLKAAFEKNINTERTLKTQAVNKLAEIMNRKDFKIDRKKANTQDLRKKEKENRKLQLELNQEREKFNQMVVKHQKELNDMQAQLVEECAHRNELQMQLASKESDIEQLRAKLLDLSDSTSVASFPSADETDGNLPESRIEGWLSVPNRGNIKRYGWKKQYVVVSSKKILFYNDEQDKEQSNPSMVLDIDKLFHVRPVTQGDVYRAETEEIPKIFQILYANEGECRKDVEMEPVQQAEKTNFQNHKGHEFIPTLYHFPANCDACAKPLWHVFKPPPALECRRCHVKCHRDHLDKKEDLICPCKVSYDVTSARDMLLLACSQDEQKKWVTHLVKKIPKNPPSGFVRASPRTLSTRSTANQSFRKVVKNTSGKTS

SMILES: COc1ccc2c(c1)CC(C(=O)Nc1ccc(-c3ccncc3)cc1OCCN(C)C)CO2 (stereo not given)
- pIC50 [1]: 6.77
- pIC50 [2]: 8.05
- Ratio IC50 [3]: 18.9

SMILES: CN(C)CCOc1cc(-c2ccncc2)ccc1NC(=O)C1COc2ccc(Cl)cc2C1 (stereo not given)
- pIC50 [1]: 6.87
- pIC50 [2]: 7.66
- Ratio IC50 [3]: 6.1

SMILES: CN(C)CCOc1cc(-c2ccncc2)ccc1NC(=O)C1COc2ccccc2C1 (stereo not given)
- pIC50 [1]: 7.52
- pIC50 [2]: 8.15
- Ratio IC50 [3]: 4.3

SMILES: COc1ccc2c(c1)CC(C(=O)Nc1ccc(-c3cn[nH]c3)cc1OCCN(C)C)CO2 (stereo not given)
- pIC50 [1]: 8.47

SMILES: COc1ccc2c(c1)C[C@@H](C(=O)Nc1ccc(-c3ccncc3)cc1OCCN(C)C)CO2
- pIC50 [1]: 6.28
- pIC50 [2]: 6.76
- Ratio IC50 [3]: 3

SMILES: COc1ccc2c(c1)C[C@H](C(=O)Nc1ccc(-c3ccncc3)cc1OCCN(C)C)CO2
- pIC50 [1]: 7.17
- pIC50 [2]: 8.52
- Ratio IC50 [3]: 22.7

SMILES: Cc1ccc2c(c1)CC(C(=O)Nc1ccc(-c3ccncc3)cc1OCCN(C)C)CO2 (stereo not given)
- pIC50 [1]: 6.77
- pIC50 [2]: 7.62
- Ratio IC50 [3]: 7

SMILES: CN(C)CCOc1cc(-c2ccncc2)ccc1NC(=O)C1COc2ccc(F)cc2C1 (stereo not given)
- pIC50 [1]: 6.98
- pIC50 [2]: 8.15
- Ratio IC50 [3]: 14.8

SMILES: COc1ccc2c(c1)CC(C(=O)Nc1ccc(-c3c[nH]nc3C)cc1OCCN(C)C)CO2 (stereo not given)
- pIC50 [1]: 7.79
- pIC50 [2]: 8.92
- Ratio IC50 [3]: 13.6
